Laboratory results from patent publication US20100215710A1, “Beta-2 Adrenergic Receptor Agonists and Antagonists and Modulation of Wound Healing” (The Regents of the University of California, priority 2005, published 2010).

Legend:
[1] = cited from earlier work
human keratinocytes [2] = test: Single cell migration assay, keratinocytes (clenbuterol, OA); assay type: cell-based; settings: 1 μM clenbuterol, one-hour period, vs control
Protocol: All single cell migration assays were performed on cells plated on glass cover-slips inserted into 35 mm plastic dishes (MatTek Corp., Ashland, Mass.) that had been coated for 1 hour at 37° C. with 60 μg/ml collagen L Cells were plated onto the collagen-coated glass cover-slips at a density of 250 cells/mm^2 for 3-6 hours at 37° C. Cells were either untreated (control), pre-treated with 10 nM okadaic acid (OA) (10 nM) for 45 minutes prior to the addition of OA (10 nM) and clenbuterol (1 μM) (OA/Clen) or treated with either OA or clenbuterol (1 μM) alone at time 0. The dishes were inserted into metal plates, maintained at 37° C., on inverted Nikon Diaphot microscopes to monitor single cell migration. Time-lapse images of the cell migratory response were digitally captured every 10 minutes over a one-hour period by Q-Imaging Retiga-EX cameras (Burnaby, BC, Canada) controlled by a custom automation written in Improvision Open Lab software (Lexington, Mass.) on a Macintosh G4. After each cell's center of mass was tracked using the Open Lab software, migration speed and distance were calculated and imported to Excel (Microsoft Corporation, Redmond, Wash.). Significance was taken as p<0.01, using Student's t test (unpaired) to compare the means of the control and β-AR agonist-treated cell populations.
Keratinocytes were plated onto collagen-coated glass cover-slips at a concentration of 250 cells/mm^2 in KGM for 3-6 hours at 37° C. The migration of each single cell was monitored over a one-hour period, and the results were analyzed in excel as described. The speed of migration ([…]) is represented graphically in FIG. 1 Panel C, control n=57, clenbuterol n=57, OA n=60, OA-clenbuterol n=44. The data are representative of three independent experiments with at least two different keratinocyte strains. * P<0.01 between β-AR agonist and controls; #P<0.01 between OA-clenbuterol and clenbuterol alone.

human keratinocytes [3] = test: Scratch assay, confluent keratinocyte cultures (clenbuterol); assay type: cell-based; settings: 1 μM clenbuterol
Protocol: Human keratinocytes were isolated from neonatal foreskins as reported previously (Isseroff et al. (1987) Conversion of linoleic acid into arachidonic acid by cultured murine and human keratinocytes. J Lipid Res 28:1342-1349) and cultured using a modification of the method of Rheinwald and Green (Rheinwald and Green (1975) Serial cultivation of strains of human epidermal keratinocytes: the formation of keratinizing colonies from single cells. Cell 6:331-343). […]
Cells were grown to confluence on cover-slips (Fisher Scientific, Pittsburgh, Pa.) coated with 60 μg/ml Collagen I (Vitrogen 100, Collagen Corp., Palo Alto, Calif.). […] The area of the wound was determined using NIH Image 1.6 and the percent wound healing calculated by dividing the area of the wound at time X by the area of the wound at time 0 and multiplying by 100. […]
Keratinocytes were grown to confluence on collagen-coated glass cover-slips in the absence (control) or presence of 1 μM clenbuterol. […] Representative photographs of images at time 40 hours are shown in FIG. 1 Panel A. The percent wound healing was calculated and is represented graphically in FIG. 1 Panel B; control wounds are indicated by circles, clenbuterol treated by squares. […]

[4] = system: cultured human keratinocytes; test: Keratinocyte migratory speed with epinephrine at post-burn levels; assay type: cell-based
Description: (§1) Since burn wounded patients have elevated levels of the circulating β2-AR activator epinephrine, whether blockade of β2-ARs increases keratinocyte migration and has the potential to accelerate burn wound re-epithelialization was examined.

human keratinocytes [5] = test: Scratch wounding of confluent keratinocytes with epinephrine; assay type: cell-based
Description: as §1

[6] = system: corneal epithelial wounds; test: Corneal epithelial wound healing in vivo in β2-AR +/+ or −/− mice
Protocol: Using male β2-AR +/+ or β2-AR −/− mice, 2 mm diameter circular corneal epithelial wounds (OD) were created using a crescent blade. The corneas were treated topically with Balanced Salt Solution (BSS), BSS with 1% isoproterenol, or BSS with 0.5% timolol, and the wound healing was monitored stereomicroscopically using fluorescein.

human skin wounds = test: Human skin wound healing assay (explant culture, 10% serum); assay type: cell-based; settings: isoproterenol-treated wounds
Description: A wound healing model developed by Kratz (Kratz (1998) Modeling of wound healing processes in human skin using tissue culture. Microsc Res Tech 42:345-350) was adapted. Normal human skin was obtained from routine breast reductions or abdominoplasties under an approved exemption granted by the Internal Review Board at University of California, Davis. Under sterile conditions, excess subcutaneous fat was trimmed from 6″×3″ sections of skin prior to stretching and pinning onto sterile cork board. A 3 mm punch (Sklar Instruments, West Chester, Pa.) was used to make wounds in the epidermis and into the superficial dermis and the 3 mm discs of skin were excised using sterile scissors. 6 mm skin discs, with the 3 mm epidermal wound in the center, were excised using a 6 mm biopsy punch (SMS Inc., Columbia, Md.). […] Re-epithelialization was determined using light microscopy. […] Measuring the linear distance covered by new epithelium and dividing that by the linear distance between the original wound edges determined the percentage of re-epithelialization. […]
Wounds, 3 mm in diameter, were generated in excised human skin, cultured in the presence or absence of 10 μM isoproterenol, fixed and stained every day after wounding as described. Re-epithelialization was determined using light microscopy. […]

human skin burn wounds = test: Ex vivo model of burn wound healing in excised human skin; assay type: cell-based; settings: for burn wound re-epithelialization status: 10 μm, day ten after the burn wound, control did not fully re-epithelialize
Protocol: An ex vivo model of burn wound healing was developed. A heated brass rod was applied to excised human skin, obtained and maintained basically as described above in Example 1. Burn wounds were treated with β-AR agonist (10 μm isoproterenol) or β-AR antagonist (10 μm timolol). […] Images were taken at 40× magnification.

β2-AR = test: Western blot of β2-AR in scratch wounded keratinocyte cultures; assay type: cell-based, human; settings: addition of timolol
Description: as §1

## CC(C)(C)NCC(O)COc1cccc2c1CC(O)C(O)C2 (stereo not shown) [Nadolol, nadolol]
[1]
  lipid solubility: low

## CC(C)(C)NCC(O)c1cc(Cl)c(N)c(Cl)c1 (stereo not shown) [clenbuterol]
Human keratinocytes [2]
  reduction of keratinocyte migratory speed: 45%
Human keratinocytes [3]
  time required for scratch wounds to heal: significantly increases
Human keratinocytes [3]; 40 hours after wounding, control wounds completely healed
  percent wound healing of scratch wounds: 40%

## CNC[C@H](O)c1ccc(O)c(O)c1 [epinephrine]
[4]; epinephrine 10 nM
  decrease in keratinocyte migratory speed: 75%
Human keratinocytes [5]; epinephrine pretreatment
  reduction of scratch wound healing: 70%

## CC(C)NCC(O)c1ccc(O)c(O)c1 (stereo not shown) [isoproterenol]
[6]; β2-AR +/+ mice, topical BSS with 1% isoproterenol
  delay of wound healing (rate, linear phase): ~80%
[6]; β2-AR −/− mice, topical BSS with 1% isoproterenol
  delay of wound healing: but not in β2-AR −/− mice
Human skin wounds
  re-epithelialization of human skin wounds: significant delay
Human skin burn wounds; 10 μm isoproterenol, day ten after the burn
  delay of re-epithelialization: 14%
Human skin burn wounds
  burn wound re-epithelialization status: did not fully re-epithelialize

## CC(C)(C)NC[C@H](O)COc1nsnc1N1CCOCC1 [timolol]
[6]; β2-AR +/+ mice, topical BSS with 0.5% timolol
  rate of healing: increased the rate of healing significantly
[6]; β2-AR −/− mice, topical BSS with 0.5% timolol
  increase in rate of healing: but not in β2-AR −/− mice
β2-AR
  β2-AR downregulation one hour after the scratch: delayed
[4]; timolol 10 μM added to epinephrine 10 nM
  migratory speed of epinephrine-treated keratinocytes: restored the migratory speed to control levels
Human keratinocytes [5]; timolol added to epinephrine
  acceleration of scratch wound healing: 20%
  effect on epinephrine-reduced scratch wound healing: reversed the effects of epinephrine
Human skin burn wounds; 10 μm timolol, day ten after the burn
  enhancement of re-epithelialization: 37%
Human skin burn wounds
  burn wound re-epithelialization status: fully re-epithelialized
